Measurements published in patent publication US20240327381A1, “Compounds and Compositions for Selective Degradation of Engineered Proteins” (Celgene Corporation, priority 2023, published 2024).

Columns and labels:
Type in all cases: cell-based
[1] = target: T1, IKZF1 ZNF2_ZNF3 Q1F degron-tagged CD19 CAR (Homo sapiens, UniProt Q13422, Q146F); assay: Degradation of Q1F degron-tagged CD19 CAR in Jurkat cells (flow cytometry of CAR levels); details: for DC50: Jurkat cells expressing CD19 CAR tagged with IKZF1 ZNF2_ZNF3 Q1F, 18 hours at 37° C., CAR levels normalized to untreated cells, read-out: Q1F Jurkat IC50; for Dmax: Ymax is the % protein degraded, Jurkat cells expressing Q1F degron-tagged CD19 CAR, 18 hours, read-out: Q1F Jurkat-YMax
T1 construct: ZNF2_ZNF3 Q1F degron (GERPFFCNQCGASFTQKGNLLRHIKLHSGEKPFKCHLCNYACRRRDALTGHLRTHS); fused on or other part: anti-CD19 scFv, CD28 transmembrane domain, 4-1BB costimulatory domain, CD3 zeta signaling domain (the CAR that carries the degron), and Nluc
In short: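 Jurkat cells were lentivirally transduced with an anti-CD19 scFv/CD28 TM/4-1BB/CD3ζ CAR tagged with an IKZF1 ZNF2_ZNF3 Q1F degron–Nluc, then treated with compound titrations for 18 h at 37 °C. CAR surface levels were stained (20 min, 4 °C), read by flow cytometry and normalised to untreated cells. EC50 came from a four-parameter logistic fit; Ymin is the minimum % CAR remaining.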

Helios [2] = target: T2, Helios (Homo sapiens, UniProt Q96SW2+Q9UKS7); assay: Helios degradation in Jurkat/Helios/HiBit cells (Nano-Glo luminescence); details: for Helios Jurkat Hibit YMax: Ymax is the % protein degraded, 18 hr
T2 construct: endogenous in cells; host or cells: Jurkat cells, CRISPR/Cas9 knock-in of HiBit at the IKZF2 locus
In short: (§1)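 Jurkat cells carrying CRISPR-knocked-in C-terminal HiBit-tagged endogenous IKZF2 were treated with compound in DMEM/10% FCS (10,000 cells/well) for 18 h at 37 °C. HiBit signal was read by Nano-Glo luminescence after 30 min at RT. EC50 for degradation came from a four-parameter logistic fit, with Ymax as % protein degraded.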

Helios [3] = target: T3, Helios (Homo sapiens, UniProt Q9UKS7); assay: as above; details: 18 hr, read-out: Helios Jurkat Hibit IC50
T3 construct: endogenous in cells; host or cells: Jurkat cells, CRISPR/Cas9 knock-in of HiBit at the IKZF2 locus
In short: as §1

T3 sequence (Q9UKS7 whole entry): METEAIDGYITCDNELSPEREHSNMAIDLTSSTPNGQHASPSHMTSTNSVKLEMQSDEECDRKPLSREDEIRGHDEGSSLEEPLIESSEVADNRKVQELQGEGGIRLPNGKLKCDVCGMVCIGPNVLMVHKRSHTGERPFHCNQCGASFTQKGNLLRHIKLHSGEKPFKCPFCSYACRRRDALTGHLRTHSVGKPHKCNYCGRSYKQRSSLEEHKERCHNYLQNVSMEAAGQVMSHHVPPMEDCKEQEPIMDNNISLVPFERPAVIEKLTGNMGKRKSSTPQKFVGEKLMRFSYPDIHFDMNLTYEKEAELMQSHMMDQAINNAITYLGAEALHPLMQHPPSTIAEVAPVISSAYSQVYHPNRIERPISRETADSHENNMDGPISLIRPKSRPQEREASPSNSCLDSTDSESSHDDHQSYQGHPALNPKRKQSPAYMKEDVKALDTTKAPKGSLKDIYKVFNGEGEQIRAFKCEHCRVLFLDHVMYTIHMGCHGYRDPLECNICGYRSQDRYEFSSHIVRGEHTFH
T3 sequence (Q96SW2 whole entry, further chain): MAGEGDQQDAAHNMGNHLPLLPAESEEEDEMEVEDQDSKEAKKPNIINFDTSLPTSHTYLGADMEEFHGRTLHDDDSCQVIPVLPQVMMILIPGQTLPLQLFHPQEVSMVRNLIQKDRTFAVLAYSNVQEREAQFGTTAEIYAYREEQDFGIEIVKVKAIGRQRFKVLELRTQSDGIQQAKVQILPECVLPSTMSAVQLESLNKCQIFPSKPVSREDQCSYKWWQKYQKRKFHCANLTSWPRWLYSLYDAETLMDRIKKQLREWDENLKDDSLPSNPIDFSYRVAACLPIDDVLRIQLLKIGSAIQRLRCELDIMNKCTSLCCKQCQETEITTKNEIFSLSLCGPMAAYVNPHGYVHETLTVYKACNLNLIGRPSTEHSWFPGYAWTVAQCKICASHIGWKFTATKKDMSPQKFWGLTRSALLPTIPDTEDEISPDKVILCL
T3 sequence (Q16531 whole entry partner): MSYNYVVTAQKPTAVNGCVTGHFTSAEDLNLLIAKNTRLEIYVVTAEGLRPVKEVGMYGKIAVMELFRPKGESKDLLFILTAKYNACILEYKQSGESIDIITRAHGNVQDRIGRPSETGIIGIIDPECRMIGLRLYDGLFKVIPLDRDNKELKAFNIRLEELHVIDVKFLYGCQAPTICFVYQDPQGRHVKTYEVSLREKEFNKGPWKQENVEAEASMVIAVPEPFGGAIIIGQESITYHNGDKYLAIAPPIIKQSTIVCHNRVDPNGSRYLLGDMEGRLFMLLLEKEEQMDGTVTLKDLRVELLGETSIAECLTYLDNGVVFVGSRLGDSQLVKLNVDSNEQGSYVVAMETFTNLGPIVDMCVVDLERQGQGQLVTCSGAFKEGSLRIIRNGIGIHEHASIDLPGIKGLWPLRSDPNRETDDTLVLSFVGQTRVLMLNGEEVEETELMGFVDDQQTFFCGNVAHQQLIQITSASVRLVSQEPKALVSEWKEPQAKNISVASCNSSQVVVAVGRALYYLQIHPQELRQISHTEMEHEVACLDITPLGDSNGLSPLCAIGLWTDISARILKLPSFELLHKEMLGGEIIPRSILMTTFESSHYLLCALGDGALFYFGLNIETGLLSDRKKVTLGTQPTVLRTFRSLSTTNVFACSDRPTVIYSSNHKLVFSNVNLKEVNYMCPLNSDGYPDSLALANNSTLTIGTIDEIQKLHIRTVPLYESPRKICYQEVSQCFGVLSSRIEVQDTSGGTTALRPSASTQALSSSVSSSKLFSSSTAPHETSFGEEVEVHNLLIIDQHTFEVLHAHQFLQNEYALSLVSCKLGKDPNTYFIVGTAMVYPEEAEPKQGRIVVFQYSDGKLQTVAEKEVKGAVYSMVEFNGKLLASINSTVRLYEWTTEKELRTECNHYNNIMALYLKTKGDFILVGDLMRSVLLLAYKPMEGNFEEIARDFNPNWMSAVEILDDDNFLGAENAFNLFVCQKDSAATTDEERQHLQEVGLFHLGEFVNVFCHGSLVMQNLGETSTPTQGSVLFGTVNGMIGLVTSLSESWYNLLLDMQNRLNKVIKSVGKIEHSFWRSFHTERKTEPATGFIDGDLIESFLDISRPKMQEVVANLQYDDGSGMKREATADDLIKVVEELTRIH
T2 sequence (Q9UKS7 whole entry): as the sequence (Q9UKS7 whole entry) above
T2 sequence (Q96SW2 whole entry): as the sequence (Q96SW2 whole entry, further chain) above
T2 sequence (Q16531 whole entry partner): as the sequence (Q16531 whole entry partner) above
T1 sequence (Q13422 whole entry Q146F, the tested form may be a part): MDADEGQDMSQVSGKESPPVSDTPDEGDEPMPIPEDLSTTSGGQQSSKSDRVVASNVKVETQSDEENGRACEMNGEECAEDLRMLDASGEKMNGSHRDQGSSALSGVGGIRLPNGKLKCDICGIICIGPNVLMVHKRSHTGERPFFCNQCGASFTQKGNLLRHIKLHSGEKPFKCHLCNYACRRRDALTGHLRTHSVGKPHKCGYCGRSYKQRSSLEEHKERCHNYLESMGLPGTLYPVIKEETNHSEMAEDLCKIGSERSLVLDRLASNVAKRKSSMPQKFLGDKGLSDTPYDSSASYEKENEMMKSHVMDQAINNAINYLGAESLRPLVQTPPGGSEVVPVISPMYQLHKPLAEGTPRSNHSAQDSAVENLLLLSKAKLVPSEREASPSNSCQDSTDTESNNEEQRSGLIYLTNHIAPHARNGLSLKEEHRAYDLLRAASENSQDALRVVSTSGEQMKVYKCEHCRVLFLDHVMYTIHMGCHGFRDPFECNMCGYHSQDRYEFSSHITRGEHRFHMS

O=C1CCC(N2Cc3c(cc(F)c(C4(O)CCN(Cc5ccc(C(F)(F)F)cc5)CC4)c3F)C2=O)C(=O)N1 (stereo not drawn) [Compound 11, 3-(4,6-difluoro-5-(4-hydroxy-1-(4-(trifluoromethyl)benzyl)piperidin-4-yl)-1-oxoisoindolin-2-yl)piperidine-2,6-dione]
DC50 [1]: 0.00491 µM | Dmax [1]: 83.5% | DC50 (Helios [2]; read-out: Helios Jurkat Hibit IC50, 18 hr): ≥ 10 µM

Cc1cc(-c2cc(F)c3c(c2)CN(C2CCC(=O)NC2=O)C3=O)nc(N)c1C (stereo not drawn) [Compound 16, 3-(5-(6-amino-4,5-dimethylpyridin-2-yl)-7-fluoro-1-oxoisoindolin-2-yl)piperidine-2,6-dione]
DC50 [1]: 0.00267 µM | Dmax [1]: 92.9% | Helios Jurkat Hibit YMax (Helios [2]): 64.8253% | DC50 (Helios [3]): 0.012 µM

Cc1ccc(CN2CCC(c3c(F)cc4c(c3F)CN(C3CCC(=O)NC3=O)C4=O)CC2)cc1F (stereo not drawn) [Compound 46, 3-(4,6-difluoro-5-(1-(3-fluoro-4-methylbenzyl)piperidin-4-yl)-1-oxoisoindolin-2-yl)piperidine-2,6-dione]
DC50 [1]: 0.000112 µM | Dmax [1]: 91.8% | Helios Jurkat Hibit YMax (Helios [2]): 50.8729% | DC50 (Helios [3]): 6520 µM

O=C1CCC(N2Cc3c(cc(F)c(C4CCN(Cc5ccc6[nH]ccc6c5)CC4)c3F)C2=O)C(=O)N1 (stereo not drawn) [Compound 61, 3-(5-(1-((1H-indol-5-yl)methyl)piperidin-4-yl)-4,6-difluoro-1-oxoisoindolin-2-yl)piperidine-2,6-dione]
DC50 [1]: 0.000204 µM | Dmax [1]: 93.4% | Helios Jurkat Hibit YMax (Helios [2]): 59.5442% | DC50 (Helios [3]): 0.152 µM

O=C1CCC(N2Cc3c(cc(F)c(C4CCN(Cc5ccc6[nH]ncc6c5)CC4)c3F)C2=O)C(=O)N1 (stereo not drawn) [Compound 63, 3-(5-(1-((1H-indazol-5-yl)methyl)piperidin-4-yl)-4,6-difluoro-1-oxoisoindolin-2-yl)piperidine-2,6-dione]
DC50 [1]: 0.000103 µM | Dmax [1]: 93% | Helios Jurkat Hibit YMax (Helios [2]): 55.0199% | DC50 (Helios [3]): 3.31 µM

CC1(C)Cc2cccc(CN3CCN(Cc4c(F)cc5c(c4F)CN(C4CCC(=O)NC4=O)C5=O)CC3)c2O1 (stereo not drawn) [Compound 75, 3-(5-((4-((2,2-dimethyl-2,3-dihydrobenzofuran-7-yl)methyl)piperazin-1-yl)methyl)-4,6-difluoro-1-oxoisoindolin-2-yl)piperidine-2,6-dione]
DC50 [1]: 0.00332 µM | Dmax [1]: 89% | Helios Jurkat Hibit YMax (Helios [2]): 65.5325% | DC50 (Helios [3]): 0.0651 µM

O=C1CCC(N2Cc3c(cc(F)c(CN4CCN(Cc5ccc6c(c5)OCCO6)CC4)c3F)C2=O)C(=O)N1 (stereo not drawn) [Compound 76, 3-(5-((4-((2,3-dihydrobenzo[b][1,4]dioxin-6-yl)methyl)piperazin-1-yl)methyl)-4,6-difluoro-1-oxoisoindolin-2-yl)piperidine-2,6-dione]
DC50 [1]: 0.00489 µM | Dmax [1]: 88.8% | Helios Jurkat Hibit YMax (Helios [2]): 72.1901% | DC50 (Helios [3]): 0.0063 µM

O=C1CCC(N2Cc3c(cc(F)c(C4C[C@H]5CC[C@@H](C4)N5Cc4ccc(C(F)F)cc4)c3F)C2=O)C(=O)N1 (stereo partly drawn) [Compound 128, 3-(5-((1R,5S)-8-(4-(difluoromethyl)benzyl)-8-azabicyclo[3.2.1]octan-3-yl)-4,6-difluoro-1-oxoisoindolin-2-yl)piperidine-2,6-dione]
DC50 [1]: 0.0174 µM | Dmax [1]: 87.2% | DC50 (Helios [3]): ≥ 10 µM
